Reference: US20230382949A1 (HEPTARES THERAPEUTICS LIMITED, priority 2020, published 2023)
Where two headings read alike, the source gives them in different places. Starred links: 1 amine or outer side, 2 acyl side, 3 side chain; linkers in the order of their positions; H or OH if unused. Non-standard residues stand in square brackets, D forms with d. Residues, ends and D or L forms follow the SMILES beside them. *: point of attachment. Ala(piperidin-4-yl) = O=C([C@H](CC1CCN([*:3])CC1)N[*:1])[*:2]; Malonyl(2,2-Me2,histaminyl) = CC(C)(C(=O)NCCc1cnc[nH]1)C(=O)*; dBip = N[C@H](Cc1ccc(-c2ccccc2)cc1)C(=O)O; Oic = O=C(O)[C@@H]1C[C@@H]2CCCC[C@@H]2N1; Phe(4-Br) = N[C@@H](Cc1ccc(Br)cc1)C(=O)O; X2 = COCCOCCOCCOCCOCCNC(=O)C(C)(C)C(=O)*; X1 = CC(C)(C(=O)NCCc1ccccc1)C(=O)*; X3 = CC(C)(C(=O)NCCc1ccccn1)C(=O)*; Ser(ΨH,HPro) = O=C(O)[C@@H]1COCN1; hArg = N=C(N)NCCCC[C@H](N)C(=O)O; hPhe = N[C@@H](CCc1ccccc1)C(=O)O; Pip = O=C(O)[C@@H]1CCCCN1; Aib = CC(C)(N)C(=O)O

What was measured:
human Apelin receptor [1] = target: T1, human Apelin receptor (Homo sapiens, UniProt P35414); assay: cAMP accumulation assay (HTRF), functional agonism of human Apelin receptors; assay type: cell-based
T1 sequence (P35414 1-380): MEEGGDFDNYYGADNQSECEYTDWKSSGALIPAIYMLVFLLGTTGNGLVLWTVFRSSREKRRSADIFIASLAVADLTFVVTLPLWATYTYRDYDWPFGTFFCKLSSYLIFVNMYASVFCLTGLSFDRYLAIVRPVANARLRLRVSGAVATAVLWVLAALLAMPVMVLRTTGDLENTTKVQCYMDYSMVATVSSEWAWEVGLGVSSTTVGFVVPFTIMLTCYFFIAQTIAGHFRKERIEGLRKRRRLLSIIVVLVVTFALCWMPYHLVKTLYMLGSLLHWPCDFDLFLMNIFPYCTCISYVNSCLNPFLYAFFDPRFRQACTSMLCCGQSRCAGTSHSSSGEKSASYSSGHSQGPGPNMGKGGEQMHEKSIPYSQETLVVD
Source text: cAMP functional assay. cAMP production was quantified using the Homogeneous Time-Resolved Fluorescence (HTRF) cAMP dynamic-2 assay (Cisbio, France).

human Apelin receptor [2] = target: T2, human Apelin receptor (Homo sapiens, UniProt P35414); assay: β-arrestin accumulation assay, functional agonism of human Apelin receptors; assay type: cell-based
T2 construct: host or cells: CHO-K1 cells
Procedure: β-arrestin assay. […] After 16 h incubation at 37° C. media was removed and cells were incubated at 37° C. for 90 min in serum free media containing increasing concentrations of test agonist. The assay reaction was stopped by adding detection reagent (DiscoveRx) and incubation for 60 min in the dark. Levels of receptor activation were then measured on a PheraStar fluorescence plate reader (BMG LabTech) and EC50 values were determined using Graphpad Prism.
T2 sequence (P32121 whole entry partner, one chain of several): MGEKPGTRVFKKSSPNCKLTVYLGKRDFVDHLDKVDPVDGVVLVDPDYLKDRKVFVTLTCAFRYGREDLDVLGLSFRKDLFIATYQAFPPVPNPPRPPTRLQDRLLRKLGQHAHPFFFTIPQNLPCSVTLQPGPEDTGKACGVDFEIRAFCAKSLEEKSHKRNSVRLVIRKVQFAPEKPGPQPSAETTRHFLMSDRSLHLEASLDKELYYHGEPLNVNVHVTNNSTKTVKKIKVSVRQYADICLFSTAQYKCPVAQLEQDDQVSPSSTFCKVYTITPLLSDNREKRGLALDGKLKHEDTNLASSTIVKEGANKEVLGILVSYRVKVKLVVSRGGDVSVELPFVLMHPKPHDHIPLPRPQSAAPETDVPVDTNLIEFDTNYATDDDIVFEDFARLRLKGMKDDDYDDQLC

[3] = CHO, Human Apelin agonist cAMP assay, CHO cells stably expressing the human Apelin receptor, 3 uM forskolin
[4] = pEC50, Human Apelin agonist cAMP assay, CHO cells stably expressing the human Apelin receptor, 3 uM forskolin

| Emax (human Apelin receptor [1]; CHO, read-out: Emax) | EC50 (human Apelin receptor [1]; read-out: pEC50 (converted)) | Compound | Emax (human Apelin receptor [1]; [3]) | EC50 (human Apelin receptor [1]; [4]) | EC50 (human Apelin receptor [2]) | Emax (human Apelin receptor [1]; Human Apelin agonist cAMP assay, CHO cells stably expressing the human Apelin receptor, 3 uM forskolin) | Human Apelin agonist β-arrestin assay pEC50 (human Apelin receptor [2]; CHO-K1 cells overexpressing human Apelin receptor and β-arrestin, 90 min) | Human Apelin agonist β-arrestin assay Emax (human Apelin receptor [2]; CHO-K1 cells overexpressing human Apelin receptor and β-arrestin, Emax only reported for active compounds) |
| --- | --- | --- | --- | --- | --- | --- | --- | --- |
|  |  | CC(C)C[C@H](NC(=O)[C@@H](CCCNC(=N)N)NC(=O)C1C2CC2CN1C(=O)[C@H](CCCCNC(=N)N)NC(=O)[C@H](CCC(N)=O)NC(=O)[C@@H](CCCNC(=N)N)NC(=O)C(C)(C)C(=O)NCCc1c[nH]cn1)C(=O)NC(C)(C)C(=O)N[C@@H](Cc1c[nH]cn1)C(=O)N[C@@H](CC1CCNCC1)C(=O)NCC(=O)N1[C@H](C(=O)N[C@@H](Cc2ccc(Br)cc2)C(=O)N2CCC[C@H]2C(=O)N[C@H](Cc2ccc(-c3ccccc3)cc2)C(=O)O)C[C@@H]2CCCC[C@@H]21 (single isomer, unassigned) [37 Isomer 1] | 68.6% | 10 nM | > 100 µM |  |  |  |
|  |  | CC(C)C[C@H](NC(=O)[C@@H](CCCNC(=N)N)NC(=O)C1C2CC2CN1C(=O)[C@H](CCCCNC(=N)N)NC(=O)[C@H](CCC(N)=O)NC(=O)[C@@H](CCCNC(=N)N)NC(=O)C(C)(C)C(=O)NCCc1c[nH]cn1)C(=O)NC(C)(C)C(=O)N[C@@H](Cc1c[nH]cn1)C(=O)N[C@@H](CC1CCNCC1)C(=O)NCC(=O)N1[C@H](C(=O)N[C@@H](Cc2ccc(Br)cc2)C(=O)N2CCC[C@H]2C(=O)N[C@H](Cc2ccc(-c3ccccc3)cc2)C(=O)O)C[C@@H]2CCCC[C@@H]21 (single isomer, unassigned) [37 Isomer 2] |  | 5.01 nM |  | 68.9 | <4 |  |
|  |  | CC(C)C[C@H](NC(=O)[C@@H](CCCNC(=N)N)NC(=O)[C@@H]1CCCN1C(=O)[C@H](CCCCNC(=N)N)NC(=O)[C@H](CCC(N)=O)NC(=O)[C@@H](CCCNC(=N)N)NC(=O)C(C)(C)C(=O)NCCc1cnc[nH]1)C(=O)N[C@H](C)C(=O)N[C@@H](Cc1c[nH]cn1)C(=O)N[C@@H](CC1CCNCC1)C(=O)NCC(=O)N1[C@H](C(=O)N[C@@H](Cc2ccc(Br)cc2)C(=O)N2CCC[C@H]2C(=O)N[C@H](Cc2ccc(-c3ccccc3)cc2)C(=O)O)C[C@@H]2CCCC[C@@H]21 [Example 1] ({Malonyl(2,2-Me2,histaminyl)}-[dR]Q[hArg]P[dR]L[dA]H[Ala(piperidin-4-yl)]G[Oic][Phe(4-Br)]P[dBip]-OH) | 27.2% | 15.8 nM | > 10 µM |  |  |  |
|  |  | CC(C)C[C@H](NC(=O)[C@@H](CCCNC(=N)N)NC(=O)[C@@H]1CCCN1C(=O)[C@H](CCCCNC(=N)N)NC(=O)[C@H](CCC(N)=O)NC(=O)[C@@H](CCCNC(=N)N)NC(=O)C(C)(C)C(=O)NCCc1cnc[nH]1)C(=O)NC(C)(C)C(=O)N[C@@H](Cc1c[nH]cn1)C(=O)N[C@@H](CC1CCNCC1)C(=O)NCC(=O)N1[C@H](C(=O)N[C@@H](Cc2ccc(Br)cc2)C(=O)N2CCC[C@H]2C(=O)N[C@H](Cc2ccc(-c3ccccc3)cc2)C(=O)O)C[C@@H]2CCCC[C@@H]21 [Example 2] ({Malonyl(2,2-Me2,histaminyl)}-[dR]Q[hArg]P[dR]L[Aib]H[Ala(piperidin-4-yl)]G[Oic][Phe(4-Br)]P[dBip]-OH) | 50.8% | 20 nM | > 10 µM |  |  |  |
|  |  | CC(C)C[C@H](NC(=O)[C@@H](CCCNC(=N)N)NC(=O)[C@@H]1CCCN1C(=O)[C@H](CCCCNC(=N)N)NC(=O)[C@H](CCC(N)=O)NC(=O)[C@@H](CCCNC(=N)N)NC(=O)C(C)(C)C(=O)NCCc1ccccc1)C(=O)NC(C)(C)C(=O)N[C@@H](Cc1c[nH]cn1)C(=O)N[C@@H](CC1CCNCC1)C(=O)NCC(=O)N1[C@H](C(=O)N[C@@H](Cc2ccc(Br)cc2)C(=O)N2CCC[C@H]2C(=O)N[C@H](Cc2ccc(-c3ccccc3)cc2)C(=O)O)C[C@@H]2CCCC[C@@H]21 [Example 5] (X1-[dR]Q[hArg]P[dR]L[Aib]H[Ala(piperidin-4-yl)]G[Oic][Phe(4-Br)]P[dBip]-OH) | 47.2% | 15.8 nM | > 10 µM |  |  |  |
|  |  | CC(C)C[C@H](NC(=O)[C@@H](CCCNC(=N)N)NC(=O)[C@@H]1CCCN1C(=O)[C@H](CCCCNC(=N)N)NC(=O)[C@H](CCC(N)=O)NC(=O)[C@@H](CCCNC(=N)N)NC(=O)C(C)(C)C(=O)NCCc1ccccn1)C(=O)NC(C)(C)C(=O)N[C@@H](Cc1c[nH]cn1)C(=O)N[C@@H](CC1CCNCC1)C(=O)NCC(=O)N1[C@H](C(=O)N[C@@H](Cc2ccc(Br)cc2)C(=O)N2CCC[C@H]2C(=O)N[C@H](Cc2ccc(-c3ccccc3)cc2)C(=O)O)C[C@@H]2CCCC[C@@H]21 [Example 6] (X3-[dR]Q[hArg]P[dR]L[Aib]H[Ala(piperidin-4-yl)]G[Oic][Phe(4-Br)]P[dBip]-OH) | 53.9% | 20 nM | > 10 µM |  |  |  |
| 59.2% | 20 nM | COCCOCCOCCOCCOCCNC(=O)C(C)(C)C(=O)N[C@H](CCCNC(=N)N)C(=O)N[C@@H](CCC(N)=O)C(=O)N[C@@H](CCCCNC(=N)N)C(=O)N1CCC[C@H]1C(=O)N[C@H](CCCNC(=N)N)C(=O)N[C@@H](CC(C)C)C(=O)NC(C)(C)C(=O)N[C@@H](Cc1c[nH]cn1)C(=O)N[C@@H](CC1CCNCC1)C(=O)NCC(=O)N1[C@H](C(=O)N[C@@H](Cc2ccc(Br)cc2)C(=O)N2CCC[C@H]2C(=O)N[C@H](Cc2ccc(-c3ccccc3)cc2)C(=O)O)C[C@@H]2CCCC[C@@H]21 [Example 7] (X2-[dR]Q[hArg]P[dR]L[Aib]H[Ala(piperidin-4-yl)]G[Oic][Phe(4-Br)]P[dBip]-OH) |  |  | > 10 µM |  |  |  |
|  |  | CC(C)C[C@H](NC(=O)[C@@H](CCCNC(=N)N)NC(=O)[C@@H]1CCCN1C(=O)[C@H](CCCCNC(=N)N)NC(=O)[C@H](CCc1ccccc1)NC(=O)[C@@H](CCCNC(=N)N)NC(=O)C(C)(C)C(=O)NCCc1c[nH]cn1)C(=O)NC(C)(C)C(=O)N[C@@H](Cc1c[nH]cn1)C(=O)N[C@@H](CC1CCNCC1)C(=O)NCC(=O)N1[C@H](C(=O)N[C@@H](Cc2ccc(Br)cc2)C(=O)N2CCC[C@H]2C(=O)N[C@H](Cc2ccc(-c3ccccc3)cc2)C(=O)O)C[C@@H]2CCCC[C@@H]21 [Example 8] ({Malonyl(2,2-Me2,histaminyl)}-[dR][hPhe][hArg]P[dR]L[Aib]H[Ala(piperidin-4-yl)]G[Oic][Phe(4-Br)]P[dBip]-OH) | 56.1% | 15.8 nM | > 10 µM |  |  |  |
|  |  | CC(C)C[C@H](NC(=O)[C@@H](CCCNC(=N)N)NC(=O)[C@@H]1CCCN1C(=O)[C@H](CCCNC(=N)N)NC(=O)[C@H](CCC(N)=O)NC(=O)[C@@H](CCCNC(=N)N)NC(=O)C(C)(C)C(=O)NCCc1c[nH]cn1)C(=O)NC(C)(C)C(=O)N[C@@H](Cc1c[nH]cn1)C(=O)N[C@@H](CC1CCNCC1)C(=O)NCC(=O)N1[C@H](C(=O)N[C@@H](Cc2ccc(Br)cc2)C(=O)N2CCC[C@H]2C(=O)N[C@H](Cc2ccc(-c3ccccc3)cc2)C(=O)O)C[C@@H]2CCCC[C@@H]21 [Example 9] ({Malonyl(2,2-Me2,histaminyl)}-[dR]QRP[dR]L[Aib]H[Ala(piperidin-4-yl)]G[Oic][Phe(4-Br)]P[dBip]-OH) | 86.9% | 6.31 nM | > 10 µM |  |  |  |
|  |  | CC(C)C[C@H](NC(=O)[C@@H](CCCNC(=N)N)NC(=O)[C@@H]1C[C@@H]2CCCC[C@@H]2N1C(=O)[C@H](CCCCNC(=N)N)NC(=O)[C@H](CCC(N)=O)NC(=O)[C@@H](CCCNC(=N)N)NC(=O)C(C)(C)C(=O)NCCc1c[nH]cn1)C(=O)NC(C)(C)C(=O)N[C@@H](Cc1c[nH]cn1)C(=O)N[C@@H](CC1CCNCC1)C(=O)NCC(=O)N1[C@H](C(=O)N[C@@H](Cc2ccc(Br)cc2)C(=O)N2CCC[C@H]2C(=O)N[C@H](Cc2ccc(-c3ccccc3)cc2)C(=O)O)C[C@@H]2CCCC[C@@H]21 [Example 10] ({Malonyl(2,2-Me2,histaminyl)}-[dR]Q[hArg][Oic][dR]L[Aib]H[Ala(piperidin-4-yl)]G[Oic][Phe(4-Br)]P[dBip]-OH) | 52.5% | 20 nM | > 10 µM |  |  |  |
|  |  | CC(C)C[C@H](NC(=O)[C@@H](CCCNC(=N)N)NC(=O)[C@@H]1COCN1C(=O)[C@H](CCCCNC(=N)N)NC(=O)[C@H](CCC(N)=O)NC(=O)[C@@H](CCCNC(=N)N)NC(=O)C(C)(C)C(=O)NCCc1c[nH]cn1)C(=O)NC(C)(C)C(=O)N[C@@H](Cc1c[nH]cn1)C(=O)N[C@@H](CC1CCNCC1)C(=O)NCC(=O)N1[C@H](C(=O)N[C@@H](Cc2ccc(Br)cc2)C(=O)N2CCC[C@H]2C(=O)N[C@H](Cc2ccc(-c3ccccc3)cc2)C(=O)O)C[C@@H]2CCCC[C@@H]21 [Example 11] ({Malonyl(2,2-Me2,histaminyl)}-[dR]Q[hArg][Ser(ΨH,HPro)][dR]L[Aib]H[Ala(piperidin-4-yl)]G[Oic][Phe(4-Br)]P[dBip]-OH) | 90.6% | 12.6 nM | > 10 µM |  |  |  |
|  |  | CC(C)C[C@H](NC(=O)[C@@H](CCCNC(=N)N)NC(=O)[C@@H]1CCCCN1C(=O)[C@H](CCCCNC(=N)N)NC(=O)[C@H](CCC(N)=O)NC(=O)[C@@H](CCCNC(=N)N)NC(=O)C(C)(C)C(=O)NCCc1c[nH]cn1)C(=O)NC(C)(C)C(=O)N[C@@H](Cc1c[nH]cn1)C(=O)N[C@@H](CC1CCNCC1)C(=O)NCC(=O)N1[C@H](C(=O)N[C@@H](Cc2ccc(Br)cc2)C(=O)N2CCC[C@H]2C(=O)N[C@H](Cc2ccc(-c3ccccc3)cc2)C(=O)O)C[C@@H]2CCCC[C@@H]21 [Example 12] ({Malonyl(2,2-Me2,histaminyl)}-[dR]Q[hArg][Pip][dR]L[Aib]H[Ala(piperidin-4-yl)]G[Oic][Phe(4-Br)]P[dBip]-OH) | 98.9% | 7.94 nM | > 10 µM |  |  |  |
|  |  | Apelin [reference compound] |  |  |  |  |  | 165.8 |
